Results reported in patent publication US20240099214A1, “PLANT DEFENCE GENE EXPRESSION” (UPL Corporation Limited, priority 2021, published 2024).

Legend:
[1] = tested on: Subtilisin-like protease-like (gene 9, Solyc01g087800.2); assay: qRT-PCR expression of gene 9 in tomato leaves; assay type: in vivo, Tomato ecotype corbarino; parameters: key to RQ1 / RQ2 / RQ3 / RQ mean: relative expression normalized to a-tubulin housekeeping gene
Procedure: (§1) Tomato ecotype “corbarino” reported to be susceptible to TSWV infection was used in the experiment. Plants were grown in pots in a climatic chamber with a photoperiod of 16/8 hour at 25° C.
(§2) The viral strain (TSWV PV PV-0393) was utilized in the experiment. The virus was mechanically inoculated and propagated on tomato “corbarino”. The inoculum was prepared in an ice-cooled mortar grounding 1 gr of infected tomato tissue in 10 ml of Na-phosphate buffer 0.01M. The fresh prepared inoculum was stored in ice before use. Tomato plants at BBCH16 were dusted with Carborundum 600 mesh and selected leaves were rubbed with some droplets of inoculum. After 5 min. plants were sprayed with sterile water to remove the excess of inoculum and preserve the cell turgor.
(§3) Four treatments were compared: i) Mock inoculated; ii) TSWV; iii) 0.25% Laminarin; iv) 0.25% Laminarin+TSWV. In the last treatment the virus was inoculated 24 hrs after the laminarin application.
(§4) Total RNA was extracted from systemic infected tomato leaves by using the Quick-RNA Plant Kit (Zymo Research) following the manufacturer instructions. The extractions were carried out using three plants after 12 h, 24 h, 48 h, 72 h, 7 days after inoculation. Leaves were instantly frozen in liquid nitrogen after cutting to avoid any deterioration of the sample as well as any defense reaction. The RNA concentration was quantified by measuring the absorbance at 260 nm using a Nanodrop 2000 (Thermofisher). The purity of all of the RNA samples was assessed at an absorbance ratio of OD260/280 and OD260/230, while its structural integrity was checked by agarose gel electrophoresis. Only high-quality RNA with OD 260/280 and OD 260/230>2 was used for subsequent steps. Single-stranded cDNA was synthesized from 1 μg of total RNA using an iScript™ Select cDNA Synthesis Kit and random hexamers as primers (Bio-Rad, Milan, Italy), according to the manufacturer's instructions. Three biological replicates were created from the 3 leaves collected to test 15 genes. Alpha tubulin was used as reference gene.
(§5) qPCR reactions were performed with BioRad (Applied Biosystems, Foster City, CA, USA) using SYBR R Green. Each reaction was performed in 20 μl containing 10 μl of 2× Power SYBR Green PCR Master Mix (Life Technologies), 0.2-0.3 μM primers and cDNA samples diluted 1:20. Each qPCR reaction was performed in triplicate. Reactions were run using the cycling parameter described previously (Reid et al., 2006) and the qPCR data were analyzed by the Ct method (Pfaffl, 2001). In order to analyze the qPCR data, a-tubulin gene was used as housekeeping to determine the relative expression level of the other genes analyzed in this work. For the determination of qPCR efficiency of each primer pairs, a standard curve was performed using the following cDNA dilutions: 1:4, 1:16, 1:64; 1:256 and 1:1024. Every measurement was made in triplicate. The corresponding qPCR efficiencies (E) were calculated for every primer pair with the software 7300 System SDS software (Applied Biosystems, Foster City, CA, USA) according to the equation E=(10−1/slope−1)×100 (Rutledge and Stewart, 2008).
(§6) The significance of the differences between the gene expressions levels were compared by one-way ANOVA (p=0.01) and the means were separated by Tukey post-hoc test using SPSS ver.26 ([…]).

[2] = tested on: Tropinone reductase homolog at 1g07440-like (gene 10, Solyc06g083470.2); assay: qRT-PCR expression of gene 10 in tomato leaves; assay type: in vivo, Tomato ecotype corbarino; parameters: key: relative expression normalized to a-tubulin housekeeping gene
Procedure: as §1, §2, §3, §4, §5, §6

**Q.** How did the RQ1 ([1]; 12 hr, Laminarin + virus) turn out when laminarin was run?
**A.** 0.9838

**Q.** What about the RQ2 ([1]; 12 hr, Laminarin + virus) of the same substance?
**A.** 0.8556

**Q.** And the RQ3 ([1]; 12 hr, Laminarin + virus)?
**A.** 10.797

**Q.** What about the RQ mean ([1]; 12 hr, Laminarin + virus) of the same substance?
**A.** 0.9730

**Q.** And the RQ1 ([1]; 12 hr, Laminarin alone)?
**A.** 0.8527

**Q.** What about the RQ2 ([1]; 12 hr, Laminarin alone) of the same substance?
**A.** 0.8398

**Q.** And the RQ3 ([1]; 12 hr, Laminarin alone)?
**A.** 10.240

**Q.** What about the RQ mean ([1]; 12 hr, Laminarin alone) of the same substance?
**A.** 0.9055

**Q.** What about the RQ1 ([1]; 24 hr, Laminarin + virus) of the same substance?
**A.** 0.8394

**Q.** And the RQ2 ([1]; 24 hr, Laminarin + virus)?
**A.** 10.098

**Q.** What about the RQ3 ([1]; 24 hr, Laminarin + virus) of the same substance?
**A.** 11.565

**Q.** And the RQ mean ([1]; 24 hr, Laminarin + virus)?
**A.** 10.019

**Q.** And the RQ1 ([1]; 24 hr, Laminarin alone)?
**A.** 13.867

**Q.** What about the RQ2 ([1]; 24 hr, Laminarin alone) of the same substance?
**A.** 0.9303

**Q.** What about the RQ3 ([1]; 24 hr, Laminarin alone) of the same substance?
**A.** 10.466

**Q.** What about the RQ mean ([1]; 24 hr, Laminarin alone) of the same substance?
**A.** 11.212

**Q.** And the “gene 9 expression compared to TSWV treatment” value ([1]; 48 hr, 0.25% laminarin + TSWV inoculated 24 hrs later)?
**A.** inverted

**Q.** What about the “gene 9 expression compared to TSWV treatment” value ([1]; 48 hr, 0.25% laminarin alone) of the same substance?
**A.** inverted

**Q.** What about the RQ1 ([1]; 48 hr, Laminarin + virus) of the same substance?
**A.** 15.088

**Q.** What about the RQ2 ([1]; 48 hr, Laminarin + virus) of the same substance?
**A.** 17.637

**Q.** And the RQ3 ([1]; 48 hr, Laminarin + virus)?
**A.** 13.474

**Q.** And the RQ mean ([1]; 48 hr, Laminarin + virus)?
**A.** 15.400

**Q.** And the RQ1 ([1]; 48 hr, Laminarin alone)?
**A.** 16.481

**Q.** What about the RQ2 ([1]; 48 hr, Laminarin alone) of the same substance?
**A.** 15.436

**Q.** And the RQ3 ([1]; 48 hr, Laminarin alone)?
**A.** 13.847

**Q.** What about the RQ mean ([1]; 48 hr, Laminarin alone) of the same substance?
**A.** 15.255

**Q.** And the RQ1 ([1]; 72 hr, Laminarin + virus)?
**A.** 0.9998

**Q.** What about the RQ2 ([1]; 72 hr, Laminarin + virus) of the same substance?
**A.** 10.127

**Q.** What about the RQ3 ([1]; 72 hr, Laminarin + virus) of the same substance?
**A.** 0.9578

**Q.** And the RQ mean ([1]; 72 hr, Laminarin + virus)?
**A.** 0.9901

**Q.** What about the RQ1 ([1]; 72 hr, Laminarin alone) of the same substance?
**A.** 16.204

**Q.** And the RQ2 ([1]; 72 hr, Laminarin alone)?
**A.** 0.7923

**Q.** What about the RQ3 ([1]; 72 hr, Laminarin alone) of the same substance?
**A.** 18.354

**Q.** And the RQ mean ([1]; 72 hr, Laminarin alone)?
**A.** 14.160

**Q.** And the “gene 9 expression” value ([1]; 72 hr, after the treatment with laminarin)?
**A.** no clear overexpression

**Q.** And the RQ1 ([2]; 12 hr, Laminarin + virus)?
**A.** 11.314

**Q.** And the RQ2 ([2]; 12 hr, Laminarin + virus)?
**A.** 15.111

**Q.** And the RQ3 ([2]; 12 hr, Laminarin + virus)?
**A.** 14.571

**Q.** And the RQ mean ([2]; 12 hr, Laminarin + virus)?
**A.** 13.665

**Q.** What about the RQ1 ([2]; 12 hr, Laminarin alone) of the same substance?
**A.** 10.134

**Q.** And the RQ2 ([2]; 12 hr, Laminarin alone)?
**A.** 11.716

**Q.** What about the RQ3 ([2]; 12 hr, Laminarin alone) of the same substance?
**A.** 14.046

**Q.** And the RQ mean ([2]; 12 hr, Laminarin alone)?
**A.** 11.966

**Q.** And the RQ1 ([2]; 24 hr, Laminarin + virus)?
**A.** 12.827

**Q.** What about the RQ2 ([2]; 24 hr, Laminarin + virus) of the same substance?
**A.** 10.653

**Q.** What about the RQ3 ([2]; 24 hr, Laminarin + virus) of the same substance?
**A.** 14.308

**Q.** What about the RQ mean ([2]; 24 hr, Laminarin + virus) of the same substance?
**A.** 12.596

**Q.** And the RQ1 ([2]; 24 hr, Laminarin alone)?
**A.** 13.673

**Q.** And the RQ2 ([2]; 24 hr, Laminarin alone)?
**A.** 15.462

**Q.** And the RQ3 ([2]; 24 hr, Laminarin alone)?
**A.** 14.026

**Q.** What about the RQ mean ([2]; 24 hr, Laminarin alone) of the same substance?
**A.** 14.387

**Q.** And the RQ1 ([2]; 48 hr, Laminarin + virus)?
**A.** 10.393

**Q.** What about the RQ2 ([2]; 48 hr, Laminarin + virus) of the same substance?
**A.** 11.439

**Q.** And the RQ3 ([2]; 48 hr, Laminarin + virus)?
**A.** 11.568

**Q.** What about the RQ mean ([2]; 48 hr, Laminarin + virus) of the same substance?
**A.** 11.133

**Q.** And the RQ1 ([2]; 48 hr, Laminarin alone)?
**A.** 14.550

**Q.** And the RQ2 ([2]; 48 hr, Laminarin alone)?
**A.** 13.402

**Q.** And the RQ3 ([2]; 48 hr, Laminarin alone)?
**A.** 19.692

**Q.** What about the RQ mean ([2]; 48 hr, Laminarin alone) of the same substance?
**A.** 15.882

**Q.** And the RQ1 ([2]; 72 hr, Laminarin + virus)?
**A.** 10.994

**Q.** What about the RQ2 ([2]; 72 hr, Laminarin + virus) of the same substance?
**A.** 19.941

**Q.** And the RQ3 ([2]; 72 hr, Laminarin + virus)?
**A.** 16.529

**Q.** And the RQ mean ([2]; 72 hr, Laminarin + virus)?
**A.** 15.821

**Q.** And the RQ1 ([2]; 72 hr, Laminarin alone)?
**A.** 28.092

**Q.** And the RQ2 ([2]; 72 hr, Laminarin alone)?
**A.** 16.708

**Q.** What about the RQ3 ([2]; 72 hr, Laminarin alone) of the same substance?
**A.** 22.307

**Q.** And the RQ mean ([2]; 72 hr, Laminarin alone)?
**A.** 22.369
